In patent US8911342B2, “Apparatus and method for pulsed electrical field treatment” (Re5 ApS, priority 2009, dated 2014):

System: Human neural cells line from sympatic ganglia - SHSY-5Y
Settings: sertraline 10 μM 24 hours, then PEMF 2 hrs at 50 or 55 Hz, vs control cells, PCR array

CN[C@H]1CC[C@@H](c2ccc(Cl)c(Cl)c2)c2ccccc21 [sertraline, (1S,4S)-4-(3,4-dichlorophenyl)-N-methyl-1,2,3,4-tetrahydronaphthalen-1-amine]
Fold increase in mRNA, Bone morphonogenic Protein 1 (BMP1): 4 fold
Fold increase in mRNA, Bone morphonogenic Protein 5 (BMP5): 8 fold
Fold increase in mRNA, IL-17B: 8 fold
Fold increase in mRNA, IL-18: 4 fold
Fold increase in mRNA, IL-20: 4 fold
Fold increase in mRNA, IL-21: 4 fold
Fold increase in mRNA, Il-8: 8 fold
Fold increase in mRNA, Interleukin 10 (IL-10): 1 fold
Fold increase in mRNA, TNF SF10: 8 fold
Fold increase in mRNA, TNF SF11: 2 fold
Fold increase in mRNA, TNFR SF11: 8 fold
Fold increase in mRNA, Transforming growth factor beta 3 (TGFB3): 5 fold
Fold increase in mRNA, Tumor necrosis factor (TNF): 8 fold
